Two compounds from the NIST ThermoML archive (doi:10.1021/je700350b) can be followed below.

± gives the expanded uncertainty stated by the source.

A short description of series [1]: xn = mol fraction of the nth substance listed. As to conditions: x2 = 0; for surface tension liquid-gas: Ring tensiometer; for viscosity: 101.33 kPa, Liquid.
The conditions of series [2]: 101.33 kPa, Liquid, Vibrating tube method.

What is called surface tension liquid-gas is the work needed to enlarge the surface of a liquid by unit area. The term viscosity denotes the resistance of a fluid to flow. Usually mass density stands for the mass of a sample divided by its volume.

On to `O` [water] + CCN(CC)CCO, for which the surface tension liquid-gas in series [1] (283.15 K) turned out to be 73.74 ± 2.3 mN/m; in series [1] (288.15 K) it was 73.14 ± 2.2 mN/m; in series [1] (293.15 K) it was 72.59 ± 2.2 mN/m; in series [1] (298.15 K) it was 71.84 ± 2.2 mN/m; in series [1] (303.15 K) it was 71.2 ± 0.98 mN/m. Besides, the viscosity in series [1] (298.15 K) is listed as 0.89 ± 0.014 mPa·s; in series [1] (303.15 K), 0.794 ± 0.013 mPa·s.

With `CCN(CC)CCO` [(diethylamino)ethanol], the mass density was found to be 884.14 ± 0.3 kg/m3 in series [2] (293.15 K) and 879.5 ± 0.3 kg/m3 in series [2] (298.15 K).
